Counter-ions that a name gives are not always drawn.

The first test addresses T1, menin and MLL (menin, Flag tagged; biotinylated MLL1 peptide 1-46aa) (Homo sapiens, UniProt O00255).
T1 sequence (O00255 1-610): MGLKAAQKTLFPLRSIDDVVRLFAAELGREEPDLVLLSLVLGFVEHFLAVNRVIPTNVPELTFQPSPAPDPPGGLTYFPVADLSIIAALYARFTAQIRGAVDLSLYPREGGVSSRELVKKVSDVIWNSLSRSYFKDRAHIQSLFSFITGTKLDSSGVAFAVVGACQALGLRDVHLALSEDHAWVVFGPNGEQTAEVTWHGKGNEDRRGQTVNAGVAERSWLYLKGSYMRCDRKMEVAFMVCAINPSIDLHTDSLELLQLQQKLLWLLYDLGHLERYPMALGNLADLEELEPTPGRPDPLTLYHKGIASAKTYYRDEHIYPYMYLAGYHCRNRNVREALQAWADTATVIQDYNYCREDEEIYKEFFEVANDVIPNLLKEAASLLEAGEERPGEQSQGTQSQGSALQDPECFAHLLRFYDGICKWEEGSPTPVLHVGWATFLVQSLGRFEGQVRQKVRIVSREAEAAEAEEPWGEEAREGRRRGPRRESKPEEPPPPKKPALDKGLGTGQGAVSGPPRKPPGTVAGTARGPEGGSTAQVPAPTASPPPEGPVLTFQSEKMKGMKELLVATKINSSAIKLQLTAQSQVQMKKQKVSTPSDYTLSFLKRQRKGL
The test can be described thus: biochemical. The following applies: IC50, binding inhibitory activity between menin and MLL, AlphaLISA; 1 nM menin, 10 nM biotinylated MLL1 peptide.
Description: Then, the fluorescence signal by AlphaLISA (registered trademark, PerkinElmer Co., Ltd.) was measured using a plate reader (PerkinElmer Co., Ltd., EnVisionXcite).
Consider `COc1nc(N(C)[C@H]2C[C@@H](NCc3ccc(-c4cc(OC)c(OC5CCN(S(C)(=O)=O)CC5)nn4)cc3)C[C@H]2O)c2cc(CC(F)(F)F)sc2n1` [Example 118, (1R,2S,4R)-4-({[4-(6-{[1-(methanesulfonyl)piperidin-4-yl]oxy}-5-methoxypyridazin-3-yl)phenyl]methyl}amino)-2-{[2-methoxy-6-(2,2,2-trifluoroethyl)thieno[2,3-d]pyrimidin-4-yl(methyl)amino}cyclopentan-1-ol hydrochloride], for which the IC50 turned out to be 1 nM.

In the case of `CNc1nc(N(C)[C@H]2C[C@@H](NCc3ccc(-c4cncc5c4ccn5S(C)(=O)=O)cc3)C[C@H]2O)c2cc(CC(F)(F)F)sc2n1` [Example 64, (1R,2S,4R)-4[({4-[1-(methanesulfonyl)-1H-pyrrolo[2,3-c]pyridin-4yl]phenyl}methyl)amino]-2-{methyl[2-(methylamino)-6-(2,2,2trifluoroethyl)thieno[2,3-d]pyrimidin-4-yl]amino}cyclopentan-1-ol hydrochloride], the IC50 came to 2.2 nM. `COc1cc(-c2ccc(CN[C@H]3C[C@@H](O)[C@@H](N(C)c4ncnc5sc(CC(F)(F)F)cc45)C3)cc2)nnc1Cl` [Example 84, (1R,2S,4R)-4-({[4-(6-chloro-5-methoxypyridazin-3-yl)phenyl]methyl}amino)-2-{methyl[6-(2,2,2-trifluoroethyl)thieno[2,3-d]pyrimidin-4-yl]amino}cyclopentan-1-ol hydrochloride] yielded an IC50 of 2.7 nM. This IC50 and that of the compound before are within 1.5-fold of each other.

In turn, `COc1cc(-c2ccc(CN[C@H]3CC[C@@H](N(C)c4ncnc5sc(CC(F)(F)F)cc45)C3)cc2)nnc1OC` [Example 95, (1R,3S)-N^3-{[4-(5,6-dimethoxypyridazin-3-yl)phenyl]methyl}-N^1-methyl-N^1-[6-(2,2,2-(trifluoroethyl)thieno[2,3-d]pyrimidin-4-yl]cyclopentane-1,3-diamine hydrochloride] showed an IC50 of 1.2 nM. `COc1cc(-c2ccc(CN[C@H]3C[C@@H](O)[C@@H](N(C)c4ncncc4Oc4ccc(F)cc4-c4ccnn4C(C)C)C3)cc2)nnc1OC` [Example 102, (1R,2S,4R)-4-({[4-(5,6-dimethoxypyridazin-3-yl)phenyl]methyl}amino)-2-[(5-{4-fluoro-2-[1-(propan-2-yl)-1H-pyrazol-5-yl]phenoxy}pyrimidin-4-yl)(methyl)amino]cyclopentan-1-ol hydrochloride] showed an IC50 of 2.7 nM. The same measure, in the same setting: with `COc1cc(-c2ccc(CN[C@H]3C[C@@H](O)[C@@H](N(C)c4ncnc5sc(CC(F)(F)F)cc45)C3)c(F)c2)cnc1OC` [Example 76, (1R,2S,4R)-4-({[4-(5,6-dimethoxypyridin-3-yl)-2-fluorophenyl]methyl}amino)-2-{methyl[6-(2,2,2-trifluoroethyl)thieno[2,3-d]pyrimidin-4-yl]amino}cyclopentan-1-ol hydrochloride] the figure was 8.6 nM; with `CN(c1ncnc2sc(CC(F)(F)F)cc12)[C@H]1C[C@@H](NCc2ccc(-c3cncc4ccccc34)cc2)C[C@H]1O` [Example 83, (1R,2S,4R)-4-({[4-(isoquinolin-4-yl)phenyl]methyl}amino)-2-{methyl[6-(2,2,2-trifluoroethyl)thieno[2,3-d]pyrimidin-4-yl]amino}cyclopentan-1-ol hydrochloride], 4.9 nM.

Regarding `CN(c1ncnc2sc(CC(F)(F)F)cc12)[C@H]1C[C@@H](NCc2ccc(-c3cc(F)cc4c3cnn4S(C)(=O)=O)cc2)C[C@H]1O` [Example 85, (1R,2S,4R)-4-[({4-[6-fluoro-1-(methanesulfonyl)-1H-indazol-4-yl]phenyl}methyl)amino]-2-{methyl[6-(2,2,2-trifluoroethyl)thieno[2,3-d]pyrimidin-4-yl]amino}cyclopentan-1-ol hydrochloride], the IC50 came to 4 nM. The same measure, in the same setting: for `COc1cc(-c2ccc(CN[C@H]3C[C@@H](O)[C@@H](N(C)c4ncnc5sc(CC(F)(F)F)cc45)C3)cc2)nnc1N(C)C` [Example 98, (1R,2S,4R)-4-[({4-[6-(dimethylamino)-5-methoxypyridazin-3-yl]phenyl}methyl)amino]-2-{methyl[6-(2,2,2-trifluoroethyl)thieno[2,3-d]pyrimidin-4-yl]amino}cyclopentan-1-ol hydrochloride] the value was 1.9 nM.

The same test, now with this note: cell free IC50 (nM), 1 nM menin, 10 nM biotinylated MLL1 peptide, AlphaLISA.
Compound `CN(c1ncnc2sc(CC(F)(F)F)cc12)[C@@H]1CC[C@H](NCc2ccc(S(=O)(=O)N3CCCC(O)C3)cc2)C1` (mixture of isomers) [Example 57, l-[4-({[(1S,3R)-3-{methyl[6-(2,2,2trifluoroethyl)thieno[2,3-d]pyrimidin-4-yl]amino}cyclopentyl]amino}methyl)benzene-1-sulfonyl]piperidin-3-ol hydrochloride (diastereomer mixture)] came in with an IC50 of 61.2 nM.

For `CNc1nc(N(C)[C@H]2C[C@@H](NCc3ccc(-c4cnc(OC)c(OC)c4)cc3)C[C@@H]2OC)c2cc(CC(F)(F)F)sc2n1` [Example 24, N^4-[(1S,2S,4R)-4-({[4-(5,6-dimethoxypyridin-3-yl)phenyl]methyl}amino)-2-methoxycyclopentyl]-N^2,N^4-dimethyl-6-(2,2,2-trifluoroethyl)thieno[2,3-d]pyrimidine-2,4-diamine Hydrochloride], the IC50 was 4.1 nM.

Compound `CN(c1ncnc2sc(CC(F)(F)F)cc12)[C@@H]1CC[C@H](NCc2ccc(NCc3ccccc3)cc2)C1` [Example 7, (1R,3S)—N^3-{[4-(benzylamino)phenyl]methyl}-N^1-methyl-N^1-[6-(2,2,2-trifluoroethyl)thieno[2,3-d]pyrimidin-4-yl]cyclopentane-1,3-diamine Hydrochloride] registered an IC50 of 151 nM. Compared with the last compound, the IC50 is about 37-fold higher. `FC(F)(F)Cc1cc2c(N[C@@H]3CCC[C@H](NCc4ccc(-c5ccncc5)cc4)C3)ncnc2s1` [Example 40, (1S,3R)-N^1-{[4-(pyridin-4-yl)phenyl]methyl}-N^3-[6-(2,2,2-trifluoroethyl)thieno[2,3-d]pyrimidin-4-yl]cyclohexane-1,3-diamine hydrochloride] registered a half-inhibitory concentration (IC50) of 265 nM. Against the preceding compound, the IC50 is about 1.8-fold higher.

For the compound `Cc1ncc(-c2ccc(CN[C@H]3CC[C@@H](N(C)c4ncnc5sc(CC(F)(F)F)cc45)C3)cc2)cc1OC(F)F` [Example 58, (1R,3S)-N^3-({4-[5-(difluoromethoxy)-6-methylpyridin-3-yl]phenyl}methyl)-N^1-methyl-N^1-[6-(2,2,2-trifluoroethyl)thieno[2,3-d]pyrimidin-4-yl]cyclopentane-1,3-diamine hydrochloride], the IC50 came out at 15.2 nM. The same measure, in the same setting: with `C=CS(=O)(=O)NCCCNC(=O)c1ccc(CN[C@H]2CC[C@@H](N(C)c3ncnc4sc(CC(F)(F)F)cc34)C2)cc1` [Example 34, N-{-3-[(ethenesulfonyl)amino]propyl}-4-({[(1S,3R)-3-{methyl[6-(2,2,2-trifluoroethyl)thieno[2,3-d]pyrimidin-4-yl]amino}cyclopentyl]amino}methyl)benzamide hydrochloride] the figure was 413 nM; with `O=C1CCC(c2ccc(CN[C@H]3CCC[C@@H](Nc4ncnc5sc(CC(F)(F)F)cc45)C3)cc2)N1` (mixture of isomers) [Example 39, 5-[4-({[(1S,3R)-3-{[6-(2,2,2-trifluoroethyl)thieno[2,3-d]pyrimidin-4-yl[amino}cyclohexyl]amino}methyl)phenyl]pyrrolidin-2-one hydrochloride (diastereomer mixture)], 2070 nM; with `FC(F)(F)Cc1cc2c(N[C@@H]3CCC[C@H](NCc4ccc(Oc5ccccc5)cc4)C3)ncnc2s1` [Example 41, (1S,3R)-N^1-[(4-phenoxyphenyl)methyl]-N^3-[6-(2,2,2-trifluoroethyl)thieno[2,3-d]pyrimidin-4-yl]cyclohexane-1,3-diamine hydrochloride], 472 nM. Same read-out and setting: with `COc1cncc(-c2ccc(CN[C@H]3CC[C@@H](N(C)c4ncnc5sc(C6COC6)cc45)C3)cc2)c1` [Example 48, (1R,3S)-N^3-{[4-(5-methoxypyridin-3-yl)phenyl]methyl}-N^1-methyl-N^1-[6-(oxetan-3-yl)thieno[2,3-d]pyrixnidin-4-yl]cyclopentane-1,3-diamine hydrochloride] the figure was 1420 nM; with `CN(c1ncnc2sc(CC(F)(F)F)cc12)[C@@H]1CC[C@H](NCc2ccc(C(=O)NCc3cnn(C)c3)cc2)C1` [Example 49, N-[(1-methyl-1H-pyrazol-4-yl)methyl]-4-({[(1S,3R)-3-{methyl[6-(2,2,2-trifluoroethyl)thieno[2,3-d]pyrimidin-4-yl]amino}cyclopentyl]amino}methyl)benzamide hydrochloride], 24 nM; with `CN(c1ncnc2cc(CC(F)(F)F)sc12)[C@@H]1CC[C@H](NCc2ccc3[nH]c(C#N)cc3c2)C1` [Example 4, 5-({[(1S,3R)-3-{methyl[6-(2,2,2-trifluoroethyl)thieno[3,2-d]pyrimidin-4-yl]amino}cyclopentyl]amino}methyl)-1H-indole-2-carbonitrile], 172 nM.

The compound `CN(c1ncnc2sc(CC(F)(F)F)cc12)[C@@H]1CC[C@H](NCc2ccc(OCCO)c(F)c2)C1` [Example 31, 2-[2-fluoro-4-({[(1S,3R)-3-{methyl[6-(2,2,2-trifluoroethyl)thieno[2,3-d]pyrimidin-4-yl]amino}cyclopentyl]amino}methyl)phenoxy]ethan-1-ol hydrochloride] returned an IC50 of 46.4 nM.

As a reminder, the IC50 is the point on the concentration scale where inhibition reaches its midpoint.

The values are drawn from US11236106B2, “Cycloalkane-1,3-diamine derivative” (Daiichi Sankyo Company, Limited, priority 2018, dated 2022).
